The term LD50 denotes the dose expected to kill half of the subjects tested. Broadly, the IC50 is the midpoint of a concentration-inhibition curve.

From US4994468A, “Imidazoquinolone derivatives” (Kyowa Hakko Kogyo Co., Ltd., priority 1989, dated 1991) come the findings set out here.

In data set [1] the test system is experimental asthma in passively sensitized guinea pigs. The data set can be described thus: Effects on experimental asthma. The settings on record: 50 mg/kg orally, one hour before aerosol antigen 1.5% EWA; mean + SEM of 5 or 10 animals; control 254 ± 18. The class given is in vivo, guinea pig (Hartley male). The method, then:
(c) Effects on experimental asthma Guinea pigs were passively sensitized as follows. Hartley male guinea pigs weighing 350 to 500 g were intraperitoneally injected with 1 ml of rabbit EWA serum prepared by the method of Eda et al. [Folia pharmacol., Japon, 66, 237 (1970)]. The animals were treated with intraperitoneal injection of diphenhydramine (20 mg/kg) and propranolol (5 mg/kg), 30 minutes before administration of test compounds. 17 hours after the sensitization, the test compounds (50 mg/kg) were orally administrated to sensitized animals. After one hour from the administration of the test compounds, the guinea pigs were placed in plastic observation box and were exposed to an aerosal antigen of 1.5% EWA. The time until the onset of respiratory […] symptom [collapse time (second)] was measured as a result of experimental asthma.

Data set [2] in a line: Acute toxicity. The settings on record: mouse, in vivo; po, mortality for seven days, male dd-mice. As to the method:
The compounds were orally administrated (po: 300 mg/kg) to male dd-mice weighing 20 to 25 g. LD50 was determined by observing the mortality for seven days after the administration.

Data set [3] relates to passive cutaneous anaphylaxis (PCA). The data set can be described thus: Antiallergic effects: 48 hour-homologous passive cutaneous anaphylaxis (PCA) test in rats. The class given is in vivo, rat (Wistar male). The settings on record: Rattus norvegicus; minimum effective dosage: suppression rate 50% or higher in at least one of three rats; oral, 1 hour before PCA challenge; read-out: Anti-allergic effect (MED). As to the method:
Antiallergic effects of compounds were assessed by passive cutaneous anaphylaxis (PCA) test in rats. Wistar male rats weighing 180 to 220 g were used for collection of antiserum and Wistar male rats weighing 120 to 140 g for PCA test.
(i) Preparation of anti EWA serum in rat
Anti-EWA rat serum was prepared by the method of Stotland and Share [Can. J. Physiol. Pharmacol., 52, 1114, (1974)] as follows. That is, 1 mg of EWA, 20 mg of aluminium hydroxide gel and 0.5 ml of mixed vaccine of pertussis, diphtheria and tetanus were mixed, and the mixture was subcutaneously injected in 4 portions into the foot part of the rats. After 14 days, the blood of sensitized rats was collected from carotid artery. The serum was separated by centrifugation from collected blood, and kept at -80° C. Titer of the 48 hour homologous PCA tests of the serum was 1:32.
(ii) Effects on 48 hour-homologous PCA tests in rats
Groups each consisting of three male rats were used, and 0.05 ml of anti-EWA serum diluted to 8 times with a physiological saline, was sensitized passively by giving intradermal injection at two depilated points on the dorsum. After 47 hours, the test compound or its solvent (saline or CMC solution) was orally administrated, and 1 hour thereafter, PCA reaction was induced by intravenous administration of 1% Evan's blue-saline (0.5 ml/100 g) containing 2 mg of […]. After 30 minutes, animals were sacrificed by bleeding and dorsal skin was stripped to determin the extravasated dye at blue-dyed reaction site, by the method of Katayama et al. [Microbiol. Immunol., 22, 89 (1978)]. The blue-dyed spots were scissored out and placed in a test tube containing 1 ml of 1N sodium hydroxide and incubated at 37° C. for 24 hours. 9 ml of a mixture of 0.6N phosphate:acetone (5:13) was added thereto. After shaking, the mixture was centrifuged at 2500 rpm for 10 minutes. A supernatant was separated, and extravasated dye in the supernatant was quantified by measuring absorbance of the supernatant at 620 nm. Prepared calibration curve was used for the quantification. An average of measurements at the two positions was made a value for one animal, and suppression rate of the one animal was calculated by following equation: [formula]

Data set [4] relates to trachea strips of passively sensitized guinea pigs, antigen (EWA) induced contraction. As to the kind of experiment: Effects on passive Schultz-Dale reaction (broncho-dilatory effects). Format: cell-based, guinea pig (Hartley male). The settings on record: Cavia porcellus; concentration of 50% relaxation; sensitized guinea pig trachea, antigen EWA 1 μg/ml, cumulative addition, 37° C. The method, then:
(a) Effects on passive Schultz-Dale reaction (broncho-dilatory effects). Guinea pigs were passively sensitized as follows. Hartley male guinea pigs weighing 350 to 500 g were injected intraperitoneally with rabbit anti-egg albumin (EWA) serum prepared by the method of Eda et al. [Folia pharmacol., Japon 66, 237, (1970)]. After 24 hours, the guinea pigs were stunned and exsanguinated, and then trachea was excised. The zig-zag strips of the […] prepared by the method of Emmerson and Mackay [J. Pharm. Pharmacol., 31, 798, (1979)]. The strips were suspended in Krebs-Henseleit solution at 37° C. under aeration of a mixed gas of 95% oxygen and 5% carbon dioxide, and incubated for one hour. Antigen (EWA) was then introduced in the solution (final concentration; 1 μg/ml), and the contraction was measured by isotonictrasducer (TD-112s, made by Nihon Kohden K.K., Japan) and recorded on a recorder (Type 3066, made by Yokogawa-Hokushin Denki, K.K. Japan). After the contraction curves reached plateau, the compounds were successively added in order to get cumulative concentration-relaxation curves.

`CCCCn1c(=O)c2ncn(C)c2c2ccccc21` [Compound 1, 5-n-Butyl-1-methyl-1H,5H-imidazo[4,5-c]quinolin-4-one]: the “Experimental asthma (collapse time)” value in data set [1] came to 517 ± 37 s. Also, the LD50 at 168 h in data set [2] is over 300 mg/kg. For the same molecule, the minimal effective dose in data set [3] was under 10 mg/kg. Moreover, in data set [4], the IC50 stood at 0.0034 µM.
Turning to `Cn1cnc2c(=O)n(Cc3ccco3)c3ccccc3c21` [Compound 3, 5-Furfuryl-1-methyl-1H,5H-imidazo[4,5-c]quinolin-4-one], in data set [2], the LD50 at 168 h was over 300 mg/kg. The minimal effective dose in data set [3] was over 100 mg/kg. In data set [4], the IC50 is over 20 µM.
With `Cn1cnc2c(=O)n(C)c3ccccc3c21` [Compound 4, 1,5-Dimethyl-1H,5H-imidazo[4,5-c]quinolin-4-one], the LD50 at 168 h in data set [2] is over 200 mg/kg. For the same molecule, the minimal effective dose in data set [3] was over 10 mg/kg. Moreover, in data set [4], the IC50 is over 20 µM.
In the case of `CCn1c(=O)c2ncn(C)c2c2ccccc21` [Compound 5, 5-Ethyl-1-methyl-1H,5H-imidazo[4,5-c]quinolin-4-one], in data set [1], the “Experimental asthma (collapse time)” value worked out at 519 ± 78 s. The LD50 at 168 h in data set [2] was over 100 mg/kg. In addition, in data set [3], the minimal effective dose was under 10 mg/kg. Besides, the IC50 in data set [4] was over 20 µM.
On to `CCCn1c(=O)c2ncn(C)c2c2ccccc21` [Compound 6, 1-Methyl-5-n-propyl-1H,5H-imidazo[4,5-c]quinolin-4-one], for which the “Experimental asthma (collapse time)” value in data set [1] came out at 600 ± 0 s. The same molecule had an LD50 at 168 h in data set [2] of over 200 mg/kg. For the same molecule, the minimal effective dose in data set [3] was under 10 mg/kg. Moreover, in data set [4], the IC50 is under 20 µM.
Regarding `CCCCn1c(=O)c2ncn(Cc3ccccc3)c2c2ccccc21` [Compound 7, 1-Benzyl-5-n-butyl-1H,5H-imidazo[4,5-c]quinolin-4-one], the LD50 at 168 h in data set [2] is over 300 mg/kg. Also, in data set [3], the minimal effective dose was over 100 mg/kg. For the same molecule, in data set [4], the IC50 was over 20 µM.
In turn, `CCCCn1c(=O)c2nc[nH]c2c2ccccc21` [Compound 8, 5-n-Butyl-1H,5H-imidazo[4,5-c]quinolin-4-one] registered an LD50 at 168 h in data set [2] of over 300 mg/kg. For the same molecule, in data set [3], the minimal effective dose was over 100 mg/kg. Besides, in data set [4], the IC50 was over 20 µM.
Regarding `Cn1cnc2c(=O)n(CC(=O)O)c3ccccc3c21` [Compound 9, 5-Carboxymethyl-1-methyl-1H,5H-imidazo[4,5-c]quinolin-4-one], in data set [1], the “Experimental asthma (collapse time)” value came to 532 ± 31 s. For the same molecule, the LD50 at 168 h in data set [2] is over 300 mg/kg. For the same molecule, the minimal effective dose in data set [3] is over 100 mg/kg. The IC50 in data set [4] was over 20 µM.
As to `CCCCn1c(=O)c2ncn(CC)c2c2ccccc21.Cl` [Compound 16W, 5-n-Butyl-1-ethyl-1H,5H-imidazo[4,5-c]quinolin-4-one hydrochloride], the “Experimental asthma (collapse time)” value in data set [1] was found to be 422 ± 43 s. In addition, the LD50 at 168 h in data set [2] is over 300 mg/kg. Moreover, the minimal effective dose in data set [3] was over 100 mg/kg. Besides, the IC50 in data set [4] came to 4.1 µM.
For `CCCCn1c(=O)c2ncn(CCC)c2c2ccccc21.Cl` [Compound 17W, 5-n-Butyl-1-n-propyl-1H,5H-imidazo[4,5-c]quinolin-4-one hydrochloride], the “Experimental asthma (collapse time)” value in data set [1] amounted to 484 ± 31 s. Moreover, the LD50 at 168 h in data set [2] is over 300 mg/kg. Moreover, the minimal effective dose in data set [3] was over 100 mg/kg. Besides, the IC50 in data set [4] was determined as 2.4 µM.
On to `CCCCn1c(=O)c2ncn(C(C)C)c2c2ccccc21.Cl` [Compound 18W, 5-n-Butyl-1-isopropyl-1H,5H-imidazo[4,5-c]quinolin-4-one hydrochloride], for which the “Experimental asthma (collapse time)” value in data set [1] was 425 ± 50 s. In data set [2], this molecule returned an LD50 at 168 h of over 300 mg/kg. For the same molecule, the minimal effective dose in data set [3] was over 100 mg/kg. Moreover, in data set [4], the IC50 is 1.5 µM.
For the molecule `CCCCn1cnc2c(=O)n(CCCC)c3ccccc3c21.Cl` [Compound 19W, 1,5-Di-n-butyl-1H,5H-imidazo[4,5-c]quinolin-4-one hydrochloride], in data set [1], the “Experimental asthma (collapse time)” value is 503 ± 44 s. Further, the LD50 at 168 h in data set [2] is over 300 mg/kg. In data set [3], the minimal effective dose is over 100 mg/kg. In addition, in data set [4], the IC50 amounted to 6.4 µM.
As to `CCCCn1c(=O)c2ncn(C)c2c2ccc(Cl)cc21.Cl` [Compound 24W, 5-n-Butyl-7-chloro-1-methyl-1H,5H-imidazo[4,5-c]quinolin-4-one hydrochloride], the LD50 at 168 h in data set [2] was over 300 mg/kg. For the same molecule, the minimal effective dose in data set [3] is over 100 mg/kg. In addition, the IC50 in data set [4] was found to be 0.9 µM.
As to `CCCCn1c(=O)c2ncn(C)c2c2cc(C)ccc21` [Compound 26, 5-n-Butyl-1,8-dimethyl-1H,5H-imidazo[4,5-c]quinolin-4-one], the LD50 at 168 h in data set [2] is over 300 mg/kg. The minimal effective dose in data set [3] is 100 mg/kg. Further, the IC50 in data set [4] was determined as 9.8 µM.
For `CCCCn1c(=O)c2ncn(C)c2c2c(C)cccc21.Cl` [Compound 27W, 5-n-Butyl-1,9-dimethyl-1H,5H-imidazo[4,5-c]quinolin-4-one hydrochloride], in that order: over 300 mg/kg, 100 mg/kg and over 20 µM.
`CCCCn1c(=O)c2nc(S)n(C)c2c2ccccc21` [Compound 31, 5-n-Butyl-1-methyl-2-mercapto-1H,5H-imidazo[4,5-c] quinolin-4-one]: the “Experimental asthma (collapse time)” value in data set [1] is 284 ± 48 s. In data set [2], this molecule registered an LD50 at 168 h of over 300 mg/kg. In data set [3], the minimal effective dose was over 100 mg/kg. The IC50 in data set [4] is 9.6 µM.
The molecule `CCCCn1c(=O)c2nnn(C)c2c2ccccc21` [Compound 32, 5-n-Butyl-1-methyl-1H,5H-triazolo[4,5-c]quinolin-4-one] returned an LD50 at 168 h in data set [2] of over 300 mg/kg. Further, the minimal effective dose in data set [3] is over 100 mg/kg. In data set [4], the IC50 is 1.6 µM.
Turning to `CCCn1c(=O)[nH]c(=O)c2[nH]cnc21` [Enprofylline, reference compound], the minimal effective dose in data set [3] is at most 100 mg/kg. Moreover, the IC50 in data set [4] came out at 10 µM.
For `CC(C)C(=O)c1c(C(C)C)nn2ccccc12` [KC 404, reference compound], in that order: over 100 mg/kg and 0.86 µM.
For the molecule `Cn1c(=O)c2[nH]cnc2n(C)c1=O` [Theophylline, reference compound], the “Experimental asthma (collapse time)” value in data set [1] turned out to be 414 ± 47 s.
